The text below walks through data of PubChem BioAssay (NCI).

Molecules are shown by their SMILES.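 Interpolation was linear, between the two tested concentrations surrounding the appropriate level; five concentrations were tested over 48 hours in 96-well plates. TGI: concentration producing complete growth inhibition.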

Common to all, as to assay: inhibition of tumour cell growth, NCI panel, 48 h
Assay [1] concerns CAKI-1 renal.
The test system of assay [2] is PC-3 prostate.
Assay [3] has as its system HS 578T breast.
Assay [4] concerns OVCAR-4 ovarian.
Assay [5] has as its system A549 NSCLC.
In assay [6] the test system is NCI-H460 lung.
Assay [7] relates to HCT-15 colon.

`CC(C)=CCC[C@@H](C)C1=CC(=O)C(C)=C(O)C1=O`: the TGI turned out to be 10.5 µM in assay [1]; 18.2 µM in assay [2]; 21.1 µM in assay [3]; 14.2 µM in assay [4]; 25 µM in assay [5]; 43.1 µM in assay [6]. Also, the TGI in assay [7] came out at 8.08 µM.

Regarding `Cc1ccc(N=C2SC(=NN(C)C)SC2=Nc2ccc(C)cc2)cc1`, the TGI in assay [1], in assay [2], in assay [3], in assay [4], in assay [5] and in assay [6] was greater than 100 µM in each case. Further, the TGI in assay [7] was greater than 100 µM.

With `COc1ccc(Cn2c3ccc([N+](=O)[O-])cc3c(=O)n2Cc2ccccn2)cc1`, the TGI in assay [1], in assay [2], in assay [3], in assay [4], in assay [5] and in assay [6] was greater than 100 µM each time. This molecule also yielded a TGI in assay [7] greater than 100 µM.

Regarding `COc1cc(O)cc(O)c1C(=O)CC(Cl)(Cl)Cl`, the TGI in assay [1], in assay [2], in assay [3], in assay [4], in assay [5] and in assay [6] was greater than 100 µM in each case. This molecule showed a TGI in assay [7] greater than 100 µM.

Turning to `S=C(N/N=C(\C(=N/NC(=S)N1CCCCC1)c1ccccn1)c1ccccn1)N1CCCCC1`, the TGI in assay [1], in assay [2], in assay [3], in assay [5], in assay [6] and in assay [7] was greater than 100 µM throughout.

For `Nc1ccccc1OCCCOc1ccccc1N`, the TGI in assay [1], in assay [2], in assay [3], in assay [4], in assay [5] and in assay [6] was greater than 100 µM throughout. The same molecule came in with a TGI in assay [7] greater than 100 µM.

On to `CCOC1NC(/N=C/c2ccc(OC)cc2)=C(C#N)C1C#N` (stereo unspecified), for which the TGI in assay [1], in assay [2], in assay [3], in assay [4], in assay [5] and in assay [6] was greater than 100 µM each time. In assay [7], the TGI was greater than 100 µM.

Take `CCN(CC)c1ccc2cc(C(N)=O)c(=Nc3ccc(F)cc3)oc2c1`: the TGI in assay [1], in assay [2], in assay [3], in assay [4], in assay [5] and in assay [6] was greater than 100 µM each time. Besides, the TGI in assay [7] was greater than 100 µM.

As for `O=C1C=C(O)c2c(O)ccc(O)c2C1=O`, the TGI in assay [1], in assay [2], in assay [3], in assay [4], in assay [5] and in assay [6] was greater than 100 µM throughout. Further, the TGI in assay [7] was greater than 100 µM.

Regarding `O=C1CCCCN1C(=O)c1ccc([N+](=O)[O-])cc1`, the TGI in assay [1], in assay [2], in assay [3], in assay [4], in assay [5] and in assay [6] was greater than 100 µM each time. In assay [7], this molecule gave a TGI greater than 100 µM.

`NCCS(=O)(=O)O`: the TGI in assay [1], in assay [2], in assay [3], in assay [5], in assay [6] and in assay [7] was greater than 100 µM each time.

With `COC12C=CC(CC1)C(C)(C)C2OS(C)(=O)=O` (stereo unspecified), the TGI in assay [1], in assay [2], in assay [3], in assay [4], in assay [5] and in assay [6] was greater than 100 µM in each case. For the same molecule, the TGI in assay [7] is greater than 100 µM.

With `O=C(/C=C/c1ccccc1)Oc1cccc(Br)c1`, the TGI in assay [1], in assay [2], in assay [3], in assay [4], in assay [5] and in assay [6] was greater than 100 µM in each case. For the same molecule, the TGI in assay [7] stood at 42.2 µM.

For `CN1C=COC1N=C1CCCCC1` (stereo unspecified), the TGI in assay [1] was 9.16 µM; in assay [2], greater than 100 µM; in assay [3], greater than 100 µM; in assay [4], greater than 100 µM; in assay [5], greater than 100 µM; in assay [6], greater than 100 µM. In addition, the TGI in assay [7] was greater than 100 µM.

As to `O=S1(=O)OCCCOS(=O)(=O)C1(Br)Br`, the TGI in assay [1], in assay [2], in assay [3], in assay [4], in assay [5] and in assay [7] was greater than 100 µM each time.

On to `C[C@@]12C[C@@H](c3ccccc3O1)N1Cc3ccccc3CSC1=N2`, for which the TGI in assay [1], in assay [2], in assay [3], in assay [4], in assay [6] and in assay [7] was greater than 100 µM throughout.

For the molecule `CC(C)C1=C(Cc2ccccc2)C(=O)O/C1=C\c1ccc(O)c(Cl)c1`, the TGI in assay [1] is 32.9 µM; in assay [2] it was 31.7 µM; in assay [3], 33.9 µM; in assay [4], 27.8 µM; in assay [5] it was 28.4 µM; in assay [6], 31.1 µM. This molecule showed a TGI in assay [7] of 29.6 µM.

As for `C1=CN2C[n+]3ccc4ccccc4c3N=C2c2ccccc21`, the TGI was 50.2 µM in assay [1]; 31.1 µM in assay [2]; 30.4 µM in assay [3]; 21.6 µM in assay [5]; 16.4 µM in assay [6]; greater than 100 µM in assay [7].
